Like-named read-outs stand apart in the source and are kept apart here.

The record followed here is patent publication US20060057671A1 (priority 2004, published 2006).

Data set [1] is classed as physicochemical.
The format of data set [2] is physicochemical. The source holds these as a separate data set.

For the substance poly-L-lysine, the CD minimum entry was “approximately 204 nm” in data set [1] (pH 7) and “approximately 216 nm” in data set [1] (pH 11). In addition, the results for the absorbance plateau entry in data set [2] (pH 7) and in data set [2] (pH 11) were “approximately 0.22” and “approximately 0.12”, respectively.
